By EC50 is commonly meant the midpoint of the concentration-response curve. Read a low EC50 as a more potent agent.

Format in all cases: biochemical
The target of one test is T1, SHIP1-Enz (S1-Enz) (Homo sapiens, UniProt Q92835).
T1 sequence (Q92835 397-864): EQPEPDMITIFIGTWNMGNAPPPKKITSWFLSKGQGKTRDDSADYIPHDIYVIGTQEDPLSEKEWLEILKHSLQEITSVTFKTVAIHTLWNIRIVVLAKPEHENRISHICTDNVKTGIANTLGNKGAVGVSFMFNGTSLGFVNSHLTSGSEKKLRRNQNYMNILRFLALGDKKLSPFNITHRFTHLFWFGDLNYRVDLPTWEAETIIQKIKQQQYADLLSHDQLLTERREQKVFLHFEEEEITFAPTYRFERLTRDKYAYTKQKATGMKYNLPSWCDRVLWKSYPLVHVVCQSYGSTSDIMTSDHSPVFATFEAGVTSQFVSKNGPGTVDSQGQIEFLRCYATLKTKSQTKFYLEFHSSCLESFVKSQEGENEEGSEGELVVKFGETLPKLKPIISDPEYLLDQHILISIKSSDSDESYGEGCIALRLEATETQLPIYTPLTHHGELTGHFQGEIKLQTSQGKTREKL
The test is described as follows: fluorescence polarization PI. A general note: In fluorescence polarisation assays a small probe gives low polarisation when free and higher when bound to something large.

For the next test, the target named is T2, SHIP1ΔC2 (S1ΔC2) (Homo sapiens, UniProt Q92835).
T2 sequence (Q92835 397-730): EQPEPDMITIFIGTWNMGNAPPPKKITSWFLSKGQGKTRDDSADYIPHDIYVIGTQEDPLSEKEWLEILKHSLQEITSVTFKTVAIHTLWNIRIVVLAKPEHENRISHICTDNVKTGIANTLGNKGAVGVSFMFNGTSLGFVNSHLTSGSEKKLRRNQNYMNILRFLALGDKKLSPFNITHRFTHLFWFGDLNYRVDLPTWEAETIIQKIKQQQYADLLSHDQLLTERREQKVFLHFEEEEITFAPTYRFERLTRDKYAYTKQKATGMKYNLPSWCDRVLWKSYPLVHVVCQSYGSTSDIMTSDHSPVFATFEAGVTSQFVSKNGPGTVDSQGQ
The test is described as follows: malachite green phosphate release. Particulars: agonist (activation); C2 domain deleted.

The target in the next test is T3, SHIP2-Enz (S2-Enz) (Homo sapiens, UniProt O15357).
T3 sequence (O15357 414-872): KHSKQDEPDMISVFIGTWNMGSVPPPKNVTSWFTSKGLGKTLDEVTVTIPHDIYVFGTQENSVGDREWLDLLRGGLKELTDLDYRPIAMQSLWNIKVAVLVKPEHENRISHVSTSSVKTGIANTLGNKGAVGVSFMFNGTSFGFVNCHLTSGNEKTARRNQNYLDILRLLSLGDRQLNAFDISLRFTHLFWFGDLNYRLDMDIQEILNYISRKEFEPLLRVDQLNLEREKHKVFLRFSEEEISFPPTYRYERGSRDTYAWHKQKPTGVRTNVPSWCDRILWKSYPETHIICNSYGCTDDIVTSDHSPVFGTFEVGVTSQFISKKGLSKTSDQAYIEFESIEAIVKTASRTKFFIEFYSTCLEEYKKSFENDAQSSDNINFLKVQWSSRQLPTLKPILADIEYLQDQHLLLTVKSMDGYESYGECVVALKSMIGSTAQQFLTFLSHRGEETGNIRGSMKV
Description: fluorescence polarization PI.

`Cc1sc(S(=O)(=O)N2CCSCC2)cc1NC(=O)CNS(=O)(=O)c1ccc(F)cc1` [compound 8, K306]: the EC50 at SHIP1-Enz (S1-Enz) stood at 119 nM; at SHIP2-Enz (S2-Enz) it was 1170 nM. At SHIP1ΔC2 (S1ΔC2), the “malachite green phosphate release” value is “K306 retained significant agonistic activity for SHIP1ΔC2”.

For the origin of these results see PMC9020084 (iScience, 2022).
